PubChem BioAssay AID2060492 (Molecular Pharmacology Branch, DTP, NCI, 2025)

Test system: 695427-040-R-J1-PDC complex spheroids, viability percent T/C
Assay: Anticancer human tumor 695427-040-R-J1-PDC patient-derived colon adenocarcinoma cell line growth inhibition [GQUAD]
Conditions: for IC50: curve of first compound; for viability, T/C: stronger effect = lower value
From the text: DNA G-quadruplex Stabilizer Agents in Combinations in Complex Spheroids
A high-throughput screen of multi-cell type tumor spheroids was designed to identify active combinations of DNA G-quadruplex stabilizer agents and targeted small molecules. Complex spheroids include a stromal component modeled by human endothelial cells (HUVEC) and fibroblasts modeled by human mesenchymal stem cells (MSCs). The concentration ranges selected for each drug and investigational agent were based upon clinically achievable concentrations if the clinical Cmax of the agent was known.
Compounds. The drugs and investigational agents: pidnarulex (CX-5461; NSC782164), APTO-253 (NSC789042), BRACO-19 (NSC847499), peposertib (NSC802822), ceralasertib (NSC780249), elimusertib (NSC800525), camonsertib (NSC841442), AZD-1390 (NSC803789), olaparib (NSC753686), talazoparib (NSC767125), ART-558 (NSC835418), sotorasib (NSC818433), MRTX-1133 (NSC836407), SN-38 (NSC673596), topotecan (NSC609699), etoposide (NSC141540), doxorubicin (NSC123127), gemcitabine (NSC613327), 5-fluorouracil (NSC19893), paclitaxel (NSC125973), vemurafenib (NSC761431), panobinostat (NSC761190), R-306465 (JNJ-16241199; NSC773264), adavosertib (NSC754352), TP-3654 (NSC805149), carboplatin (NSC241240), KSQ-4279 (NSC840948), and staurosporine (NSC755774) were obtained from the National Cancer Institute (NCI) Developmental Therapeutics Program Chemical Repository (34). The FDA-approved anticancer drug set is available from the NCI Developmental Therapeutics Program. […] The stock solutions were prepared in dimethyl sulfoxide (DMSO, Sigma-Aldrich, St. Louis, MO, cat. D2650) at 800-fold the tested concentration and stored at -70 degrees C prior to their use. All drugs and investigational agents were tested over a range starting from a high concentration at or near the clinical Cmax and decreasing in half-log increments. If the clinical Cmax for an agent had not been determined, the highest concentration tested was 10 microM.
2.3 Cell Culture. All cells were maintained in an incubator at 37 degrees C and 5% CO2 with 95% humidity. The PDC lines were cultured according to standard operating procedures established by the NCI PDMR. All PDCs were thawed and cultured in Matrigel-coated flasks prepared with a working solution of 1X Ham's F-12 nutrient mix, without supplementation (Invitrogen, cat. 11765054), 100 U/mL penicillin-streptomycin (Invitrogen, cat. 15140122), and 2.5% Matrigel (Corning Inc., cat. 354248) for the first three passages. The 857933-349-R-J2-PDC line was cultured in 6C/Colon 1B media, which includes advanced DMEM/F-12 (Thermo Fisher Scientific, cat. 12634028), 10 mM HEPES (Thermo Fisher Scientific, cat. 15630080), 1X GlutaMAX supplement (Thermo Fisher Scientific, cat. 35050061), 0.1 mg/mL primocin (InvivoGen, cat. ant-pm-2), 10% defined fetal bovine serum, heat inactivated (HyClone Laboratories Inc., cat. SH30070.03HI), 50% L-WRN conditioned media (ATCC, cat. CRL-3276), 1.25 mM N-Acetyl-L-cysteine (Sigma-Aldrich, cat. A9165), 10 mM nicotinamide (Sigma-Aldrich, cat. N0636), 1X B-27 supplement (Thermo Fisher Scientific, cat. 17504044), 1X N-2 supplement (Thermo Fisher Scientific, cat. 17502048), 10 microM Y-27632 dihydrochloride (Tocris Bioscience, cat. 1254), and 50 ng/mL human EGF recombinant protein (Thermo Fisher Scientific, cat. PHG0311). The 485176-168-R4-J1-PDC line was cultured in Panc media, which includes all 6C/Colon 1B media components plus 100 ng/mL human FGF-10 (Thermo Fisher Scientific, cat. 100-26), 500 nM SB-431542 (Selleckchem, cat. S1067), and gastrin (Tocris, cat. 3006).
[…]

[1] = second compound 0.0316 µM, first compound 0.0316 µM
[2] = second compound 0.0316 µM, first compound 0.1 µM
[3] = second compound 0.0316 µM, first compound 0.316 µM
[4] = second compound 0.0316 µM, first compound 1 µM
[5] = second compound 0.0316 µM, first compound 3.16 µM
[6] = second compound 0.0316 µM, first compound 10 µM
[7] = second compound 0.1 µM, first compound 0.0316 µM
[8] = second compound 0.1 µM, first compound 0.1 µM
[9] = second compound 0.1 µM, first compound 0.316 µM
[10] = second compound 0.1 µM, first compound 1 µM
[11] = second compound 0.1 µM, first compound 3.16 µM
[12] = second compound 0.1 µM, first compound 10 µM
[13] = second compound 0.316 µM, first compound 0.0316 µM
[14] = second compound 0.316 µM, first compound 0.1 µM
[15] = second compound 0.316 µM, first compound 0.316 µM
[16] = second compound 0.316 µM, first compound 1 µM
[17] = second compound 0.316 µM, first compound 3.16 µM
[18] = second compound 0.316 µM, first compound 10 µM
[19] = second compound 1 µM, first compound 0.0316 µM
[20] = second compound 1 µM, first compound 0.1 µM
[21] = second compound 1 µM, first compound 0.316 µM
[22] = second compound 1 µM, first compound 1 µM
[23] = second compound 1 µM, first compound 3.16 µM
[24] = second compound 1 µM, first compound 10 µM
[25] = second compound 3.16 µM, first compound 0.0316 µM
[26] = second compound 3.16 µM, first compound 0.1 µM
[27] = second compound 3.16 µM, first compound 0.316 µM
[28] = second compound 3.16 µM, first compound 1 µM
[29] = second compound 3.16 µM, first compound 3.16 µM
[30] = second compound 3.16 µM, first compound 10 µM
[31] = second compound 10 µM, first compound 0.0316 µM
[32] = second compound 10 µM, first compound 0.1 µM
[33] = second compound 10 µM, first compound 0.316 µM
[34] = second compound 10 µM, first compound 1 µM
[35] = second compound 10 µM, first compound 3.16 µM
[36] = second compound 10 µM, first compound 10 µM
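Also: spheroids exposed to compounds for seven days before readout.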

Work on `CC1COCCN1c1cc(-c2ccnn2C)c2ccnc(-c3ccn[nH]3)c2n1` (centres undefined) + CN(C)c1ccc(Nc2c3ccc(NC(=O)CCN4CCCC4)cc3nc3cc(NC(=O)CCN4CCCC4)ccc23)cc1 yielded an IC50 (second compound 0.0316 µM) of 1.25 µM, an IC50 (second compound 0.1 µM) of 1.36 µM and an IC50 (second compound 0.316 µM) of 1.24 µM. It also gave an IC50 (second compound 1 µM) of 0.942 µM, an IC50 (second compound 3.16 µM) of 0.749 µM and an IC50 (second compound 10 µM) of 0.454 µM. It also gave a viability, T/C [1] of 95.2%, a viability, T/C [2] of 78.8% and a viability, T/C [3] of 63%. The viability, T/C [4] was 51%, the viability, T/C [5] was 44.9% and the viability, T/C [6] was 39.4%. The viability, T/C [7] was 100%, the viability, T/C [8] was 75.9% and the viability, T/C [9] was 63.9%. The viability, T/C [10] was 52%, the viability, T/C [11] was 45.3% and the viability, T/C [12] was 39.1%. For the same molecule, the viability, T/C [13] was 87.7%, the viability, T/C [14] was 76.3% and the viability, T/C [15] was 56.3%. It also gave a viability, T/C [16] of 49.3%, a viability, T/C [17] of 46.8% and a viability, T/C [18] of 42.4%. The viability, T/C [19] was 96.7%, the viability, T/C [20] was 81.9% and the viability, T/C [21] was 60.3%. For the same molecule, the viability, T/C [22] was 49.7%, the viability, T/C [23] was 45.9% and the viability, T/C [24] was 39.1%. It also gave a viability, T/C [25] of 89.3%, a viability, T/C [26] of 74.5% and a viability, T/C [27] of 55.5%. It also gave a viability, T/C [28] of 48.9%, a viability, T/C [29] of 43.8% and a viability, T/C [30] of 39.9%. For the same molecule, the viability, T/C [31] was 86%, the viability, T/C [32] was 66.1% and the viability, T/C [33] was 50.5%. For the same molecule, the viability, T/C [34] was 46.8%, the viability, T/C [35] was 40.2% and the viability, T/C [36] was 37%.
`CC1COCCN1c1cc(C2(O)CC3CCC(C2)O3)c2cnn(-c3ccn[nH]3)c2n1` (centres undefined) + CN(C)c1ccc(Nc2c3ccc(NC(=O)CCN4CCCC4)cc3nc3cc(NC(=O)CCN4CCCC4)ccc23)cc1 showed an IC50 (second compound 0.0316 µM) of 2.3 µM, an IC50 (second compound 0.1 µM) of 2.04 µM and an IC50 (second compound 0.316 µM) of 2.01 µM. It also gave an IC50 (second compound 1 µM) of 2.27 µM, an IC50 (second compound 3.16 µM) of 1.54 µM and an IC50 (second compound 10 µM) of 0.873 µM. It also gave a viability, T/C [1] of 105%, a viability, T/C [2] of 79.7% and a viability, T/C [3] of 73.6%. For the same molecule, the viability, T/C [4] was 55.5%, the viability, T/C [5] was 48% and the viability, T/C [6] was 39.6%. The viability, T/C [7] was 100%, the viability, T/C [8] was 81.9% and the viability, T/C [9] was 69.4%. It also gave a viability, T/C [10] of 57.2%, a viability, T/C [11] of 45.4% and a viability, T/C [12] of 38.1%. For the same molecule, the viability, T/C [13] was 89.3%, the viability, T/C [14] was 87.1% and the viability, T/C [15] was 70.3%. The viability, T/C [16] was 57.4%, the viability, T/C [17] was 46.4% and the viability, T/C [18] was 39%. It also gave a viability, T/C [19] of 91.3%, a viability, T/C [20] of 80.7% and a viability, T/C [21] of 67.1%. It also gave a viability, T/C [22] of 53.9%, a viability, T/C [23] of 50.9% and a viability, T/C [24] of 38.6%. For the same molecule, the viability, T/C [25] was 81.9%, the viability, T/C [26] was 78.1% and the viability, T/C [27] was 69.9%. The viability, T/C [28] was 51.8%, the viability, T/C [29] was 46.1% and the viability, T/C [30] was 37.5%. It also gave a viability, T/C [31] of 83.9%, a viability, T/C [32] of 78.2% and a viability, T/C [33] of 66.9%. For the same molecule, the viability, T/C [34] was 46.4%, the viability, T/C [35] was 41.2% and the viability, T/C [36] was 35.5%.
